The supplement of paper PMC11482750
± gives the standard deviation of the averaged measurements.

What was measured:
Assay in all cases: control-subtracted net OSN firing rate; higher = stronger neuronal activation
S. hsui pb1a-like = test system: S. hsui pb1a-like
Method: (§1)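 Dose-response single sensillum recordings from pb1a (D. melanogaster Canton-S) and pb1a-like (Scaptomyza) maxillary palp OSNs. Odorants were given at 10^-5 to 10^-2 vol/vol in mineral oil (γ-hexalactone in DMSO) as 1 s pulses. The read-out is the control-subtracted net spikes/s in a 0.5 s window.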

S. montana pb1a-like = test system: S. montana pb1a-like
Method: as §1

Canton-S pb1a = test system: Canton-S pb1a
Method: as §1

S. flava pb1a-like = test system: S. flava pb1a-like
Method: as §1

S. pallida pb1a-like = test system: S. pallida pb1a-like
Method: as §1

[1] = odorant dilution (vol/vol): 10^-2
[2] = odorant dilution (vol/vol): 10^-3
[3] = odorant dilution (vol/vol): 10^-4
[4] = odorant dilution (vol/vol): 10^-5

Compound	control-subtracted net OSN firing rate (S. hsui pb1a-like; [1]) [spikes/s]	control-subtracted net OSN firing rate (S. hsui pb1a-like; [2]) [spikes/s]	control-subtracted net OSN firing rate (S. hsui pb1a-like; [3]) [spikes/s]	control-subtracted net OSN firing rate (S. hsui pb1a-like; [4]) [spikes/s]	control-subtracted net OSN firing rate (S. montana pb1a-like; [1]) [spikes/s]	control-subtracted net OSN firing rate (S. montana pb1a-like; [2]) [spikes/s]	control-subtracted net OSN firing rate (S. montana pb1a-like; [3]) [spikes/s]	control-subtracted net OSN firing rate (S. montana pb1a-like; [4]) [spikes/s]	control-subtracted net OSN firing rate (Canton-S pb1a; [1]) [spikes/s]	control-subtracted net OSN firing rate (Canton-S pb1a; [2]) [spikes/s]	control-subtracted net OSN firing rate (Canton-S pb1a; [3]) [spikes/s]	control-subtracted net OSN firing rate (Canton-S pb1a; [4]) [spikes/s]	control-subtracted net OSN firing rate (S. flava pb1a-like; [1]) [spikes/s]	control-subtracted net OSN firing rate (S. flava pb1a-like; [2]) [spikes/s]	control-subtracted net OSN firing rate (S. flava pb1a-like; [3]) [spikes/s]	control-subtracted net OSN firing rate (S. flava pb1a-like; [4]) [spikes/s]	control-subtracted net OSN firing rate (S. pallida pb1a-like; [1]) [spikes/s]	control-subtracted net OSN firing rate (S. pallida pb1a-like; [2]) [spikes/s]	control-subtracted net OSN firing rate (S. pallida pb1a-like; [3]) [spikes/s]	control-subtracted net OSN firing rate (S. pallida pb1a-like; [4]) [spikes/s]
C=CCN=C=S [allyl isothiocyanate]	132 ± 49	51.2 ± 27	6.75 ± 6	-1 ± 12	168 ± 26	118 ± 33	58.3 ± 35	20 ± 9.4	153 ± 42	27 ± 7.3	2 ± 5.9	-3.33 ± 5	169 ± 40	117 ± 38	50 ± 28	11.4 ± 14	142 ± 25	115 ± 44	33.8 ± 19	5.56 ± 14
CCCCN=C=S [butyl isothiocyanate]					124 ± 14	42.3 ± 22	10 ± 14	0.667 ± 9.1					146 ± 29	65.7 ± 36	21.7 ± 10	-4 ± 10				
CCCC(=O)OCC [ethyl butyrate]	150 ± 38	118 ± 43	46 ± 21	11 ± 22	236 ± 60	150 ± 70	42.5 ± 25	7.5 ± 3.5	211 ± 10	209 ± 12	76.3 ± 41	12.9 ± 4.5	208 ± 60	170 ± 59	52.8 ± 54	2 ± 7.4	142 ± 26	135 ± 24	111 ± 39	20.2 ± 19
CC(C)CN=C=S [isobutyl isothiocyanate]					164 ± 20	84.7 ± 14	17.3 ± 5.9	2 ± 5.8					179 ± 22	93 ± 16	23.3 ± 7.5	5.67 ± 4.6				
CCC(C)N=C=S (centres undefined) [sec-butyl isothiocyanate]					72.7 ± 9.3	13.3 ± 9.4	-0.667 ± 7.1	0.667 ± 4.8					76.6 ± 22	19.7 ± 11	3.14 ± 6.4	-2.57 ± 5.9				
CCC/C=C/C=O [trans-2-hexenal]	130 ± 48	55.7 ± 31	9 ± 11	2.67 ± 11	187 ± 11	156 ± 23	72 ± 19	26.7 ± 4.8	121 ± 35	34.7 ± 14	5 ± 3.5	-3 ± 6.4	169 ± 30	159 ± 33	136 ± 33	58.6 ± 19	145 ± 31	119 ± 40	26.4 ± 24	5.78 ± 13
CCC1CCC(=O)O1 (centres undefined) [γ-hexalactone]	163 ± 14	128 ± 14	53 ± 17	43.7 ± 11	186 ± 42	93.7 ± 28	21.3 ± 13	-2 ± 9.8	286 ± 56	217 ± 84	33 ± 18	22.7 ± 15	182 ± 37	42.6 ± 26	3.14 ± 9.9	-3.43 ± 8	152 ± 15	98.7 ± 50	34.3 ± 35	11.3 ± 15
